Tests used:
[1] = target: Poly [ADP-ribose] polymerase 1 (Homo sapiens, UniProt P09874); experiment: Inhibition of Compounds on PARP1/7 Enzyme Activity
From the text: (§1) Fit the dose-response data with standard dilutions using Prism GraphPad software and calculate the concentration required to achieve 5000 inhibition of PARP1 or PARP7 enzyme activity (IC50).

[2] = target: T1, Protein mono-ADP-ribosyltransferase TIPARP (Homo sapiens, UniProt Q7Z3E1); experiment: Inhibition of Compounds on PARP1/7 Enzyme Activity
T1 sequence (Q7Z3E1 whole entry): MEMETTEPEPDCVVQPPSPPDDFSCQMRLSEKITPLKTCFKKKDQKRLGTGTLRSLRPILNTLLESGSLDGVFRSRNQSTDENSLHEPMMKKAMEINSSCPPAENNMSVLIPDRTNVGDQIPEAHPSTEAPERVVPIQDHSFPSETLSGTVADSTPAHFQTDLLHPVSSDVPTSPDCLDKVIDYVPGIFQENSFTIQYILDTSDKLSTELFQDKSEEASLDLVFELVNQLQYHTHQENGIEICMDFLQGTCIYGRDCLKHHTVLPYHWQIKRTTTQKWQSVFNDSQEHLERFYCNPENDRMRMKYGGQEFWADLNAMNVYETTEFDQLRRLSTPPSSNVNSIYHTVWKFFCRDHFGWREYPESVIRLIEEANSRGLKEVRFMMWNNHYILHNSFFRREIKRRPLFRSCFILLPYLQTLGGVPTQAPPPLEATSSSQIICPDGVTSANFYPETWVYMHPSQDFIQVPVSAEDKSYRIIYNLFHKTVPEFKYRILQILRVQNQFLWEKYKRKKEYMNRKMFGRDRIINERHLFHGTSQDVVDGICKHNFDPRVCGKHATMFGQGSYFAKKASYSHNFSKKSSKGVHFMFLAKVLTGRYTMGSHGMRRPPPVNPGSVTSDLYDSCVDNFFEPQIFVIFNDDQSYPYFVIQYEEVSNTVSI
From the text: as §1

Poly [ADP-ribose] polymerase 1, sequence (P09874 whole entry): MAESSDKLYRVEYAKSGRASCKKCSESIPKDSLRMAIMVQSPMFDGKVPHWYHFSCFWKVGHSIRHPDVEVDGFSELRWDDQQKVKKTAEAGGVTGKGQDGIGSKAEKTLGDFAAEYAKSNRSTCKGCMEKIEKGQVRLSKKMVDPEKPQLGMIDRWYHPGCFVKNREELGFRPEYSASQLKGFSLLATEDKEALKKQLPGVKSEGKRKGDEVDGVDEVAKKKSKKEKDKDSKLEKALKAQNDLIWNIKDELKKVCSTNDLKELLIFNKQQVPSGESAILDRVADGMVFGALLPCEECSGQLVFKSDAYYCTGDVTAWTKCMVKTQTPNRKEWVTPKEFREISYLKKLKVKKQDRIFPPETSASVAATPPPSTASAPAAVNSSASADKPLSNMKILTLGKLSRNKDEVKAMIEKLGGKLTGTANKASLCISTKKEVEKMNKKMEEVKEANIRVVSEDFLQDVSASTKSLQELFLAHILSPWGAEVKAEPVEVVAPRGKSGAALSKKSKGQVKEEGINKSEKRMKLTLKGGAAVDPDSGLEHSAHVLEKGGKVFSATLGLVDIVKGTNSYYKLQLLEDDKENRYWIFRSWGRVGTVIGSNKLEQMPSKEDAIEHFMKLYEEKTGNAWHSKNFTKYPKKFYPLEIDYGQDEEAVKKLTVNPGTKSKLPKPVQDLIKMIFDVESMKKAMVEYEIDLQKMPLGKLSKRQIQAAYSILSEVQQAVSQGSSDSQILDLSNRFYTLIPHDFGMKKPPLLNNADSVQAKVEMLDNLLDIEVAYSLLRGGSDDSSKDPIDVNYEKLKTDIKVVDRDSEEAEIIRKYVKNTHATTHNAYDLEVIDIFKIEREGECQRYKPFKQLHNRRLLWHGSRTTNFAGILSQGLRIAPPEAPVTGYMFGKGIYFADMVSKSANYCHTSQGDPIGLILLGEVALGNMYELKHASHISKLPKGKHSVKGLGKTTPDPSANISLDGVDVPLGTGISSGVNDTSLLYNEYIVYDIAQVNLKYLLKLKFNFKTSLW

| SMILES | IC50 [1] [nM] | IC50 [2] [nM] |
| --- | --- | --- |
| O=C(CC[C@@H]1C[C@@H](Oc2ccc(F)cc2F)CN1c1cc(C(F)(F)F)c(=O)[nH]n1)N1CCN(c2ncc(C(F)(F)F)cn2)CC1 [US20240294509, Compound 50] | 15 | 13 |
| O=C(CC[C@@H]1C[C@H](Oc2ccc(F)c(F)c2)CN1c1cc(C(F)(F)F)c(=O)[nH]n1)N1CCN(c2ncc(C(F)(F)F)cn2)CC1 [US20240294509, Compound 58] | 3190 | 54 |
| O=C(CC[C@@H]1C[C@@H](Oc2cccc(Cl)c2)CN1c1cc(C(F)(F)F)c(=O)[nH]n1)N1CCN(c2ncc(C(F)(F)F)cn2)CC1 [US20240294509, Compound 49] | 79 | 26 |
| O=C(CC[C@@H]1C[C@H](Oc2ccccc2)CN1c1cc(C(F)(F)F)c(=O)[nH]n1)N1CCN(c2ncc(C(F)(F)F)cn2)CC1 [US20240294509, Compound 19] | 2020 | 4.4 |
| O=C(CC[C@@H]1C[C@H](Oc2cc(F)cc(F)c2)CN1c1cc(C(F)(F)F)c(=O)[nH]n1)N1CCN(c2ncc(C(F)(F)F)cn2)CC1 [US20240294509, Compound 55] | 15600 | 82 |
| O=C(CC[C@@H]1C[C@@H](Oc2cncnc2)CN1c1cc(C(F)(F)F)c(=O)[nH]n1)N1CCN(c2ncc(C(F)(F)F)cn2)CC1 [US20240294509, Compound 63] | 179 | 3 |
| O=C(COC[C@@H]1CCCN1c1cc(C(F)(F)F)c(=O)[nH]n1)N1CCN(c2ncc(C(F)(F)F)cn2)CC1 [US20240294509, Compound 1] | 293 | 4 |
| O=C(CC[C@@H]1CCCN1c1cc(C(F)(F)F)c(=O)[nH]n1)N1CCN(c2ncc(C(F)(F)F)cn2)CC1 | 1.3 | 2.9 |
| O=C(CC[C@@H]1C[C@@H](F)CN1c1cc(C(F)(F)F)c(=O)[nH]n1)N1CCN(c2ncc(C(F)(F)F)cn2)CC1 [US20240294509, Compound 20] | 49 | 3.2 |

Reference: BindingDB's records for patent US20240294509 (Euregen Biopharma Co., 2024)
